The values that follow come from ChEMBL document CHEMBL5331140, “Discovery of IACS-52825, a Potent and Selective DLK Inhibitor for Treatment of Chemotherapy-Induced Peripheral Neuropathy” (J Med Chem, 2023).

The nature of data set [1]: Binding affinity to full length human DLK (1 to 859 residues)/NFkappaB DNA binding domain (unknown origin) fusion protein transfected in HEK293 cells assessed as dissociation constant incubated for 1 hr by Kinomescan assay. The format is cell-based.
Data set [2] addresses T1, Mitogen-activated protein kinase kinase kinase 12 (Homo sapiens, UniProt Q12852).
T1 sequence (Q12852 whole entry): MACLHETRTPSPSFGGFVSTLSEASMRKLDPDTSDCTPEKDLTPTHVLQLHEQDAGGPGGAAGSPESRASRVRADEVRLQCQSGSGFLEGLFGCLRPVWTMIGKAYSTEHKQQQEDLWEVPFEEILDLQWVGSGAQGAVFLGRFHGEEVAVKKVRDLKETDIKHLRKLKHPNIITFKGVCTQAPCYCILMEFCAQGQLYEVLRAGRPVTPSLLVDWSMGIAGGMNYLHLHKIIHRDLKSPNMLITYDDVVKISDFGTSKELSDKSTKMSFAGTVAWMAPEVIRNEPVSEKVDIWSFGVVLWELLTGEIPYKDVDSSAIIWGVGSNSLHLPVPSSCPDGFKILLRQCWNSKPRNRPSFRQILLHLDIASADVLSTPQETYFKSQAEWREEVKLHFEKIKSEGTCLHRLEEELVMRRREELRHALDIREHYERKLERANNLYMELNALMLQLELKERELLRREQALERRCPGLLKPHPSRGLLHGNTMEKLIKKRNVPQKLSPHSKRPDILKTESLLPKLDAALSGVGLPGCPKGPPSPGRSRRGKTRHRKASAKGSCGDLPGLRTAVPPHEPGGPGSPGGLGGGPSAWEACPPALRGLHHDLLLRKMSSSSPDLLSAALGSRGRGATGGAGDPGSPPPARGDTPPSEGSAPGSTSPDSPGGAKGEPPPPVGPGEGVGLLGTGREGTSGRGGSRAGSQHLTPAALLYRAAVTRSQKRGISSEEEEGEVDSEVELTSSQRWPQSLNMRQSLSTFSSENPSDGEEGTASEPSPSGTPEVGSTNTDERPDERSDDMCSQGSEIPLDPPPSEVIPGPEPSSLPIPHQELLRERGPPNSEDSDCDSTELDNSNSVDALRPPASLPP
The data set can be described thus: Inhibition of doxycycline-inducible human DLK transfected in HEK293 cells assessed as reduction in c-Jun phosphorylation at Ser63 residue incubated for 5 hrs. It counts as cell-based.

A short description of data set [3]: Metabolic stability in rat liver microsomes assessed as intrinsic clearance at 1 uM in presence of NADPH regenerating system measured for 45 mins by LC-MS/MS analysis. The conditions noted are these: read-out: CLH. The format is ADME, Microsome.
Data set [4] in a line: Metabolic stability in human liver microsomes assessed as intrinsic clearance at 1 uM in presence of NADPH regenerating system measured for 45 mins by LC-MS/MS analysis. The format is ADME, Microsome. The conditions noted are these: read-out: CLH.
The nature of data set [5]: Ratio of unbound drug concentration in C57BL/6 mouse brain to plasma at 0.3 mg/kg, iv measured for 24 hrs by LC-MS/MS analysis. The format is ADME, organism-based. The conditions noted are these: brain and plasma, read-out: K(p,uu,brain).
Data set [6] is described as follows: Volume of distribution at steady state in C57BL/6 mouse at 0.3 mg/kg, iv administered via tail vein and measured for 24 hrs by LC-MS/MS analysis. It counts as ADME, organism-based. The conditions noted are these: in vivo, read-out: Vdss.
Data set [7] can be described thus: Half life in C57BL/6 mouse at 0.3 mg/kg, iv administered via tail vein and measured for 24 hrs by LC-MS/MS analysis. It counts as ADME, organism-based. The conditions noted are these: in vivo.
Data set [8] is described as follows: Permeability in wild type MDCK cells across basolateral to apical side at 5 uM incubated for 90 mins by LC-MS/MS analysis. It counts as ADME, cell-based, Canis lupus familiaris. The conditions noted are these: dog, read-out: permeability.
The next data set has as its target Cytochrome P450 2D6 (Homo sapiens, UniProt P10635). The data set can be described thus: Inhibition of CYP2D6 in human liver microsomes using bufuralol as substrate incubated for 10 mins in presence of NADPH by LC-MS/MS analysis. The format is ADME, Microsome. Background: Liver microsomes are vesicles of endoplasmic reticulum, rich in cytochrome P450 enzymes.
Data set [9] can be described thus: Plasma protein binding in rat at 5 uM incubated for 5 hrs by rapid equilibrium dialysis method. The format is ADME, cell-free. The conditions noted are these: read-out: PPB (converted). In general terms: In equilibrium dialysis free small molecules cross a membrane that holds back macromolecules.
Data set [10] can be described thus: Plasma protein binding in monkey at 5 uM incubated for 5 hrs by rapid equilibrium dialysis method. The format is ADME, cell-free, Macaca mulatta. The conditions noted are these: rhesus monkey, read-out: PPB (converted).
Data set [11] in a line: Plasma protein binding in human at 5 uM incubated for 5 hrs by rapid equilibrium dialysis method. It counts as ADME, cell-free. The conditions noted are these: read-out: PPB.
Data set [12] in a line: Volume of distribution at steady state in cynomolgus monkey at 1 mg/kg, po or 0.3 mg/kg, iv measured for 24 hrs by LC-MS/MS analysis. It counts as ADME, organism-based, Macaca fascicularis. The conditions noted are these: in vivo.
A short description of data set [13]: Half life in Sprague-Dawley rat at 3 mg/kg, po or 1 mg/kg, iv measured for 24 hrs by LC-MS/MS analysis. The format is ADME, organism-based. The conditions noted are these: in vivo.
A further data set has as its system Mus musculus. The data set can be described thus: Antiallodynic activity in po dosed C57BL/6 mouse model of cisplatin-induced mechanical allodynia assessed as increase in paw withdrawal threshold stimulated with cisplatin on day 1 to 5 and 10 to 15 followed by daily administration of compound starting from day 16 and measured for 43 days by von frey test. The format is functional, organism-based. The conditions noted are these: dose 3-30 mg/kg, time 28.0 day.

Bounds are passed on as bounds.

Cytochrome P450 2D6, sequence (P10635 whole entry): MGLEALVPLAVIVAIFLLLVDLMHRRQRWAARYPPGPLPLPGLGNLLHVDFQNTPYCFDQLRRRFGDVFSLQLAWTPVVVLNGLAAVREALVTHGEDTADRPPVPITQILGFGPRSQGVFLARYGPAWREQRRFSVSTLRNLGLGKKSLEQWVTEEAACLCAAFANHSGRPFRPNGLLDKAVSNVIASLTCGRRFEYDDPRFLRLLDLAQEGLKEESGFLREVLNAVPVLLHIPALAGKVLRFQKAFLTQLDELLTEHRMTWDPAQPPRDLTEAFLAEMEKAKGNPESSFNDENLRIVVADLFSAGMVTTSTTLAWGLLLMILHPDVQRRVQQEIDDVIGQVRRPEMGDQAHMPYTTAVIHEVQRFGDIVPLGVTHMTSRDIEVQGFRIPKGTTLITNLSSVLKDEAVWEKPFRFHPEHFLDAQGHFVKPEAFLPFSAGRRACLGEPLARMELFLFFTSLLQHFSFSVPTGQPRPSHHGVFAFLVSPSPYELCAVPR

For `Nc1ncc(-c2cn(C34CC(F)(C3)C4)c([C@@H](O)C(F)(F)F)n2)cc1OC(F)(F)F`, the Kd in data set [1] turned out to be 1.3 nM. Further, the values for the IC50 (in data set [2]; on Cytochrome P450 2D6) were 107 nM and greater than 10000 nM, respectively. The values for the CLint scaled at 1 µM in data set [3] and in data set [4] were 16 mL/min/kg and 3 mL/min/kg, respectively. For the same compound, in [5], the Kp uu at 24 h was 0.92. Further, the Vd in [6] was 4.5 L/kg. For the same compound, the half-life is 13 h in data set [7] and 12 h in data set [13]. For the same compound, the Papp B→A at 1.5 h, 5 µM in data set [8] was 31 ×10⁻⁶ cm/s. Moreover, the values for the fraction unbound at 5 h, 5 µM in data set [9], in data set [10] and in data set [11] were 0.118, 0.139 and 0.091, respectively. For the same compound, in [12], the Vdss turned out to be 5.3 L/kg. Moreover, the Activity result with Mus musculus was “Dose-Dependent Effect”.

In general, Kd refers to the constant that tells how readily two partners part at equilibrium. Usually IC50 stands for the concentration needed to halve the response being measured. What is called half-life is how long it takes for the measured level to halve.
